The test system of data set [1] is peripheral blood mononuclear cells (PBMCs). In words: in vitro cytotoxicity in PBMC (MTT). It counts as cell-based, human. To be noted: human PBMC, 24 h, MTT. On the procedure: In vitro cytotoxicity was evaluated using peripheral blood mononuclear cells (PBMCs) collected from three healthy volunteers (2 males, mean age 33; and 1 person). PBMCs were separated by density gradient using Ficoll Paque PLUS (GE Healthcare, USA), pelleted by centrifugation (400× g for 40 min), and resuspended in RPMI 1640 medium, then supplemented with 10% fetal bovine serum and 1% antibiotic solution (penicillin 5000 Units/mL + streptomycin 5000 μg/mL). After 24 h of treatment, cell viability was evaluated by the modified colorimetric method based on the tetrazolium dye MTT (3-(4,5-dimethylthiazol-2-yl)-2,5- diphenyltetrazolium bromide). The MTT assay was used for in vitro cytotoxicity as previously described with the following modifications: cells were exposed to serially diluted concentrations of LQOFG-2, LQOFG-6, LQOFG-7 (1000 to 7.8 µM), and AmB (100 to 0.78 µM). The plates were kept at 37 °C for 24 h. MTT (5 mg/mL) was added and incubated for 4 h at 37 °C, after which the plates were centrifuged, the supernatant was discarded, and DMSO was added, leaving the plates under stirring to solubilize the formazan salts. Absorbance was measured at 540 nm using a plate reader (ELx800; Curitiba, PR, Brazil). The mean percentage of viable cells was calculated relative to the untreated control.

Another data set has as its system monocytes in PBMCs. The data set is described as follows: nitrite assay (Griess reaction) in PBMC/monocytes infected or not with L. infantum. It counts as cell-based, human. Conditions: for nitrite production: compound at 1× EC50, 24 h. The protocol:
To perform the nitrite assay, PBMCs were obtained from five healthy volunteers (3 males, mean age 28.67 ± 2.96; and 2 females, mean age 28.50 ± 0.5) from João Pessoa, PB Brazil. Briefly, peripheral blood was diluted 1:1 with phosphate-buffered saline (PBS) and slowly layered over using Ficoll® Paque PLUS (GE Healthcare, Waukesha, WI, USA). Tubes were centrifuged at 400× g for 40 min at 20 °C. After centrifugation, PBMCs were harvested, washed three times with PBS, and resuspended in RPMI medium supplemented with antibiotics (penicillin 200 U/mL and streptomycin 0.1 mg/mL), 1 mM l-glutamine, and 10% inactivated human serum. Cell viability was assessed using a trypan blue dye exclusion assay. Cells were counted using a hemocytometer.
Promastigotes were prepared as previously described. Briefly, to confirm the infection, the L. infantum promastigotes were labeled with carboxyfluorescein diacetate succinimidyl ester (CFSE) (CellTrace ™ CFSE Cell Proliferation Kit; Eugene, OR, USA). The suspension was incubated for 15 min at 5% CO2, 37 °C, and washed three times with PBS containing 10% inactivated FBS producing CFSE-labeled L. infantum, which was added to PBMCs. The infection ratio was set at 1:10 (monocyte: L. infantum) for 3 h. After the infection, cells were washed three times with PBS supplemented with 10% FBS.
The plates were incubated for 24 h in a 5% CO2 incubator at 37 °C. The plates were centrifuged at 200× g for 8 min at 4 °C, and the supernatant was collected to measure reactive nitrogen production. CD14 surface antibody (PERCP-Cy5.5; clone MΦP9) was used for monocyte labeling (Figure S1). After adding the antibody, the plate was incubated at 4 °C for 15 min, protected from light. The cells were washed with ice-cold PBS buffer. The plate was centrifuged at 200× g again for 10 min at 4 °C. The supernatant was removed, the cells were resuspended in 100 µL of PBS buffer and 100 µL of 4% formaldehyde solution, then read on a flow cytometer (BD FACSCanto II, BD Biosciences, San Jose, CA, USA). FlowJo v.10.8.1 software was used to analyze the raw data. After obtaining PBMC, the cells were plated and incubated with LQOFG-7 and AmB at a concentration of 1× the EC50 value, with media or lipopolysaccharide (LPS) stimulus (lipopolysaccharide derived from Escherichia coli, Sigma-Aldrich O111:B4) at 100 ng/mL [26, 27, 28]. The culture supernatants from those infected and non-infected were evaluated for the stable end-product of reactive nitrogen species (NO, nitrates, and nitrites) using the Griess reaction, according to the Cayman Chemical instruction manual (Cayman Chemical, Ann Arbor, MI, USA). The nitrite level was determined by measuring the absorbance at a wavelength of 540 nm using a microplate reader (BioTek-ELx800).

`C[C@@H]1[C@H](O)[C@@H](C)/C=C/C=C/C=C/C=C/C=C/C=C/C=C/[C@H](O[C@@H]2O[C@H](C)[C@@H](O)[C@H](N)[C@@H]2O)C[C@@H]2O[C@](O)(C[C@@H](O)C[C@@H](O)[C@H](O)CC[C@@H](O)C[C@@H](O)CC(=O)O[C@H]1C)C[C@H](O)[C@H]2C(=O)O` [Amphotericin B, reference compound]: in data set [1], half-maximal cytotoxicity (CC50) was put at 53.8 ± 3.59 µM. The molecule further had a nitrite production in the data set on monocytes in PBMCs (monocytes infected with L. infantum, LPS-activated (100 ng/mL)) of 13.6 ± 4.25 µM. For the same molecule, in the data set with monocytes in PBMCs (monocytes infected with L. infantum, treatment at EC50), the “increase in nitrite production (in words)” value was “no significant increase”.

Turning to `O=C(/N=C(/NCc1ccccc1)Nc1ccc(I)cc1)c1ccccc1` [LQOFG-7, (Z)-N-((benzylamine)((4-iodophenyl)amino)methylene)benzamide], the nitrite production amounted to 13.5 ± 1.30 µM in the data set with monocytes in PBMCs (monocytes infected with L. infantum, not LPS-activated, untreated infected 0.367 ± 1.48 µM) and 10.5 ± 3.58 µM in the data set with monocytes in PBMCs (uninfected human monocytes (PBMC), untreated control 3.81 ± 1.36 µM).

The values are drawn from PMC10051705, “Leishmanicidal Activity of Guanidine Derivatives against Leishmania infantum” (Tropical Medicine and Infectious Disease, 2023).
